From US9982008B2, “Preparation and uses of obeticholic acid” (Intercept Pharmaceuticals, Inc., priority 2012, dated 2018)

Key:
[1] = 1 week
Description: Briefly, the solid was suspended in water at a low pH (HCl 0.1 mol/L) and left to equilibrate at 25° C. for one week under slightly mixing. The saturate solution was filtered and the concentration of the compound in solution measured by HPLC-ES-MS/MS.

[2] = rat, in vivo, po, 20 mg/kg
Description: The study described below was carried out to evaluate the plasma kinetics after a single oral administration and the efficiency of the intestinal absorption and the pharmacokinetics of solid non-crystalline and crystalline forms of obeticholic acid. The profiles of obeticholic acid plasma concentration vs time, the tmax, Cmax and AUC after administration of obeticholic acid Form 1 (non-crystalline) or Form F were compared (see FIGS. 37-38)
Obeticholic acid Form 1 (non-crystalline) and Form F were administered to rats and in each animal blood was collected at different period of times for at least 3 hours. Six animals were studied for each form of obeticholic acid.
The formulation was prepared as a suspension in water at pH 4. The study model is adult male Sprague Dawley rats about 225 to about 250 g (Harlan Laboratories). Six animals were used per dosage route. The dosage is PO 20 mg/kg/5 mL. The animals were fasted overnight before treatment with the formulation of obeticholic acid. Oral administration was performed by gastric gavage.
On day one animals were be fitted with a cannula implanted in the left jugular vein (SOP VIVO/SAF6), anaesthesia was obtained by Isoflurane. The experiment was started after one day of recovery from surgery. About 500 μL of blood (250 μL of plasma) was taken via cannula in a heparinised syringe (Na Heparin) and collected immediately in microtubes in an ice/water bath. Within 1 hour, samples were centrifuged at 10000×g for 5 minutes at 4° C. Plasma was immediately transferred in microtubes and stored at −20° C. Samples of blood were collected 30 minutes, 1 hour, 1.3 hour, 2 hours, and 3 hour post-dose. Plasma samples were analyzed using the HPLC-ES/MS/MS quantitative method. Pharmacokinetics study was preformed using non-compartmental methods.

[3] = Log P determination by potentiometric titration (octanol/ISA water); type: physicochemical; conditions: potentiometry
Description: Data were collected by potentiometric titration on a Sirius GlpKa instrument using three ratios of octanol: ionic-strength adjusted (ISA) water to generate Log P, Log Pion, and Log D values. The data were refined using Refinement Pro software v1.0. Prediction of Log P values was made using ACD v9 and Syracuse KOWWIN v1.67 software.
Log P was predicted using ACD software then measured by potentiometry. Three titrations were performed at three different octanol/ISA water ratios, giving the difference curve plotted in FIG. 30. The black curve is the pure aqueous pKa titration and the 3 colored curves correspond to the three octanol/ISA water ratios. The shifts in pKa enable determination of Log P.
Log D is the distribution coefficient, representing the combined lipophilicity of all species present at a specific pH. Log P is a compound constant, which corresponds to the partition coefficient of the pure neutral species, while Log Pion is that of the pure ionized species. Log P and Log Pion can be determined from the lipophilicity curve, as the intersection of the Y axis with respectively the tangent at the start of the pH scale (when the molecule is purely in its neutral form) and the tangent at the end of the pH scale (when the molecule is completely ionized).

[4] = pKa determination by potentiometry (methanol/water, Yasuda-Shedlovsky extrapolation); type: physicochemical; conditions: 25° C., potentiometry with methanol as cosolvent, extrapolated to 0% co-solvent (Yasuda-Shedlovsky)
Description: pKa determination data were collected on a Sirius GlpKa instrument with a D-PAS attachment. Measurements were made at 25° C. in aqueous solution by UV and in methanol water mixtures by potentiometry. The titration media was ionic-strength adjusted (ISA) with 0.15 M KCl (aq). The values found in the methanol water mixtures were corrected to 0% co-solvent via a Yasuda-Shedlovsky extrapolation. The data were refined using Refinement Pro software v1.0. Prediction of pKa values was made using ACD pKa prediction software v9.
The pKa of obeticholic acid was measured by potentiometry using methanol as a cosolvent (FIG. 27) and extrapolated to 0% co-solvent using a Yasuda-Shedlovsky extrapolation (FIG. 28). The pKa enables determination of the proportion of the neutral and the ionized form of the compound at a given pH.

[5] = Gravimetric Vapor Sorption (GVS); type: physicochemical
Description: (§1) Sorption isotherms were obtained using a SMS DVS Intrinsic moisture sorption analyzer, controlled by DVS Intrinsic Control software v 1.0.0.30. The sample temperature was maintained at 25° C. by the instrument controls. The humidity was controlled by mixing streams of dry and wet nitrogen, with a total flow rate of 200 ml·min^−1. The relative humidity was measured by a calibrated Rotronic probe (dynamic range of 1.0-100% RH), located near the sample. The weight change, (mass relaxation) of the sample as a function of % RH (relative humidity) was constantly monitored by the microbalance (accuracy±0.005 mg).
5 to 20 mg of sample was placed in a tared mesh stainless steel basket under ambient conditions. The sample was loaded and unloaded at 40% RH and 25° C. (typical room conditions). A moisture sorption isotherm was performed as outlined below (2 scans giving 1 complete cycle). The standard isotherm was performed at 25° C. at 10% RH intervals over a 0.5-90% RH range. Data analysis was undertaken in Microsoft Excel using DVS Analysis Suite v6.0.0.7. Method Parameters for SMS DVS Intrinsic Experiments are as follows:
The sample was recovered after completion of the isotherm and re-analyzed by XRPD.
as §1, with “SMS Analysis Suite software.” for “DVS Intrinsic Control software v 1.0.0.30.”, “RH” for “RH (relative humidity)”
Typically 5-20 mg of sample was placed in a tared mesh stainless steel basket under ambient conditions. The sample was loaded and unloaded at 40% RH and 25° C. (typical room conditions). A moisture sorption isotherm was performed as outlined below (2 scans giving 1 complete cycle). […]

Water solubility [1] [µM] | Plasma concentration of tauro conjugate, crystalline form compared with Form 1 [2] | Plasma obeticholic acid concentration after 3 hours relative to Cmax [2] | Time after which Cmax is achieved ([2]; pH 4) [h] | Measured LogD7.4 ([3]; octanol/ISA water, pH 7.4) | Measured LogPion ([3]; octanol/ISA water, pure ionized species) | Measured LogP ([3]; three octanol/ISA water ratios) | Measured pKa [4] | GVS water uptake / weight change ([5]; 25° C., 0 to 90% RH) [%] | Hygroscopicity (GVS) ([5]; 25° C., 0 to 90% RH, in words) | XRPD analysis after GVS ([5]; sample recovered after isotherm) | Cmax, Form 1 compared with Form F [2] | Time of early plasma concentration peak [2] [min] | Time of second plasma concentration peak [2] [h] | Compound
9.1 | higher concentration | almost half of the Cmax | 1.5 |  |  |  |  |  |  |  |  |  |  | CC[C@H]1[C@@H](O)[C@@H]2[C@H](CC[C@]3(C)[C@@H]([C@H](C)CCC(=O)O)CC[C@@H]23)[C@@]2(C)CC[C@@H](O)C[C@@H]12 [Form F, obeticholic acid]
 |  |  |  | 2.98 | 1.58 | 5.54 | 4.82 | 3.8 | moderately hygroscopic | still non-crystalline | lower | 30 | 2 | obeticholic acid [Form 1]
